Legend:
[1] = test system: Jurkat cells; assay: Real Time Cell Analysis, cytotoxicity of Jurkat cells towards 4T1 cells; assay type: cell-based, human; settings: 1 μM VT107 for 24 hours
Method: The hippo pathway has been implicated in T-cell development and function (Du et al., 2014; Ueda et al., 2012). For example, YAP expression is essential for tumor immune suppression by Treg cells that attenuates CD8 T-cell immunity (Geng et al., 2017; Ni et al., 2018; Lebid et al., 2020). […] To investigate whether VT107 directly affected T-cells, T-cells treated with VT107 were co-cultured with 4T1 cells in 2D for 72 hours. […] To further confirm T-cell activation upon TEAD activity reduction, we used Jurkat cells, a CD4 positive human lymphoma cell line (Schneider et al., 1977). […] However, here we show the specific effect of TEAD reduction on granzyme gene expression and degranulation that result in the killing of cancer cells.
Cell analysis was done using E-plates from xCELLigence, (Agilent, #5469830001) according to the manufacturer's protocol. For cell cytotoxicity, cancer cells (10,000-25,000 cells per well) were seeded and allowed to attach for 1-2 hours prior to the addition of immune cells and/or drug treatments. For cell proliferation, cancer cells were seeded at 5,000-10,000 cells per well with incremental doses of drug treatments or DMSO as a vehicle control. Cell index was measured by changes in electric impedance at 15 min intervals. TEAD inhibitors were obtained from Vivace therapeutics. […]

[2] = test system: lung resident macrophages; assay: Cytokine array of conditioned media, isolated lung macrophages; assay type: cell-based, C57BL/6 mice
Text: Due to the shifts in immune signaling observed in the lung tissue upon TEAD inhibition (FIG. 9), immune cell populations were first analyzed by flow cytometry in the lungs and spleens of tumor naïve mice. Consistent with the Cibersort analysis of RNA-seq data, there was a decrease in the monocytes population and an increase in the tissue-resident alveolar macrophages (AM) (FIG. 10, Panel A). […] Next, it was sought to determine the specific effects of iTEAD treatment on lung resident versus bone-marrow derived macrophages, as the dynamics of these cell populations are crucial for the establishment of the metastatic niche (Ries et al., 2014; Qian et al., 2011). Macrophages were retrieved from the lungs by isolating F4/80+ cells, a specific marker for murine macrophages, by FACS (fluorescence-activated cell sorting) as well as bone marrow-derived macrophages from the femurs of naïve C57BL/6 mice that were then differentiated in vitro using macrophage colony stimulating factor (M-CSF). Macrophages were treated with 1 μM of VT107 for 24 hours before the conditioned media was collected and analyzed on a cytokine array. […] There was no change in the level of the other cytokines detected (FIG. 10, Panel B).
Cells were grown in their recommended cell culture media and treated with […] VT107 for 24 or 72 hours. Conditioned media was collected and passed through a 0.2 micron PES filter then analyzed on a RayBio® Mouse Cytokine Array (#AAM-TCR-1) according to the manufacture's protocol. The array includes two spots for each cytokine. The luminescence signal was normalized to the positive control on each membrane, then to the vehicle treatment signal of each cytokine.

[3] = test system: E0771 cells; assay: Real Time Cell Analysis, proliferation of E0771 cells; assay type: cell-based, mouse; settings: increasing doses of VT107, cell index
Method: E0771 cells were injected into the mammary fat pad of C57BL/6 mice (Johnstone et al., 2015). When primary tumors became palpable at 3 weeks, mice were treated daily with VT107 or vehicle control. Mice weights were monitored throughout treatment (FIG. 8, Panel B). Primary tumors were surgically resected at week 4 and mice were euthanized at week 6 to inspect lungs for metastases (FIG. 9, Panel A)
Cell analysis was done using E-plates from xCELLigence, (Agilent, #5469830001) according to the manufacturer's protocol. For cell cytotoxicity, cancer cells (10,000-25,000 cells per well) were seeded and allowed to attach for 1-2 hours prior to the addition of immune cells and/or drug treatments. For cell proliferation, cancer cells were seeded at 5,000-10,000 cells per well with incremental doses of drug treatments or DMSO as a vehicle control. Cell index was measured by changes in electric impedance at 15 min intervals. TEAD inhibitors were obtained from Vivace therapeutics.

Substance: VT107
- Jurkat cytotoxicity towards co-cultured 4T1 cells [1]: enhanced cytotoxicity
- level of the other cytokines detected ([2]; 1 μM VT107 24 hours, lung and bone marrow-derived macrophages): no change
- secreted IL4 ([2]; 1 μM VT107 for 24 hours): significantly higher level
- secreted IL12 ([2]; 1 μM VT107 for 24 hours): significantly higher level
- proliferation of E0771 in vitro [3]: did not impact
